Source: patent publication US9139812B2, “CD49F promoting proliferation, multipotency and reprogramming of adult stem cells through PI3K/AKT/GSK3 pathway” (KANG STEM HOLDINGS CO., LTD, priority 2010, dated 2015)
“Also recorded” adds a separate entry of the source.

Columns and labels:
Type in all cases: cell-based, human
[1] = tested on: adult stem cells overexpressing CD49f; assay: MTT cell proliferation assay in CD49f-overexpressing adult stem cells; settings: 24 and 48 hours
Experimental: (§1) In order to further confirm whether CD49f genetic expression is dependent on the activation of PI3K/AKT/GSK3 pathway, adult stem cells overexpressing CD49f were treated with LY294002 or BIO for 24 hours and 48 hours.
The proliferation potential of cells was measured by MTT assay analysis based on the ability of living cells to convert tetrazolium salt into purple formazan. Adult stem cells were transduced with either control vector or CD49f expression vector. After 24 hours from transduction, cells were seeded onto 24-well plate, and incubated in medium comprising LY294002 and BIO. After culture for 24 hours and 48 hours, […] of MTT stock solution (5 mg/ml, Sigma) was added to each well, and then further incubated at 37° C. for 4 hours. After removing the supernatant, […] of DMSO was added to each well so that insoluble purple formazan crystals can be dissolved […]. Then, cells were transferred to 96-well microplate and then the absorbance was measured using EL800 microplate reader (BIO-TEK Instruments, Winooski, Vt., U.S.A.) at wavelength of 540 nm. All of measurements were repeated three times.

[2] = tested on: adult stem cells overexpressing CD49f; assay: Sphere formation assay in CD49f-overexpressing adult stem cells
Experimental: (§2) Cells were seeded onto 24-well plate, and then the optical density was measured after 24 hour and 48 hours (*, P<0.05; **, P<0.01). FIG. 9(B) is the result of measuring a size of spheres in the presence or absence of CD49f, LY294002, BIO (*, P<0.05; **, P<0.01). FIG. 9(C) is the result of Western blot analysis for PI3K/AKT/GSK3β. CD49f expression vector was transduced into cells, which were than treated with LY294002 and BIO. Using phospho-specific antibodies for respective proteins the phosphorylation level of protein kinases was identified via Western blotting. 20 μg of protein lysate was loaded onto each well.
as §1

PI3K/AKT/GSK3β [3] = assay: Western blot for PI3K, AKT, GSK3β phosphorylation in MSC spheres; settings: spheres treated with 0.2 μM BIO, compared to monolayer-incubated adult stem cells
Experimental: FIG. 6(A) is the result of Western blot analysis conducted after 7 days from sphere culture, wherein MSC spheres were collected by means of 40 μm strainer and then washed two times, and the phosphorylation levels of PI3K and its sequential downstream effectors, AKT and GSK3β were analyzed in monolayer cells, spheres, spheres treated with 0.2 μM BIO, and spheres treated with 30 μM LY294002.
(§3) Western blot analysis for PI3K, AKT, and GSK3β was conducted according to the reference (Park et al., 2009). Adult stem cells incubated as monolayer or spheres were crushed in 50 mM Tris-HCl buffer comprising 1% Triton X-100 to which 1 mM phenylmethylsulfonyl fluoride, 1 mM aprotinin, 1 mM leupeptin, 1 mM antipain, and 0.1 mM sodium orthovanadate were added, 137 mM NaCl, 2 mM EDTA, and 0.1% SDS. The content of protein was determined using DC assay kit (Bio-Rad, USA), and then SDS-PAGE was conducted by loading a given amount of protein on 0-15% polyacrylamide gel. Then protein was transferred to nitrocellulose membrane at 50 V, 350 mA for 5 hours. All of antibodies were used according to the manufacturer's instructions, and the protein bands were identified using enhanced chemiluminescence detection kit (Amersham Pharmacia Biotech, Buckinghamshire, UK).

PI3K/AKT/GSK3β [4] = assay: Western blot for PI3K/AKT/GSK3β in CD49f-overexpressing adult stem cells
Experimental: as §2
as §3, with “All of antibodies were used according to the manufacturer's instructions, and the protein bands were identified using enhanced chemiluminescence detection kit (Amersham Pharmacia Biotech, Buckinghamshire, UK).” left out

adult stem cells = assay: Survival of adult stem cells treated with BIO; settings: BIO treatment
adult stem cell spheres = assay: Formation of adult stem cell (MSC) spheres with GSK3 or PI3K inhibitor; settings: after 7 days; BIO 0.2 μM to 0.5 μM; LY294002 30 μM to 50 μM
Experimental: To form adult stem cell spheres with preventing the adhesion of cells to the bottom of plastic container, 100 mm culture plate coated with 1% agarose (Nunc, Rochester, N.Y.) was used, and 1.5×10^5 adult stem cells were incubated in the growth medium as described in Preparation 1. A total of 15,000 cells were seeded per 1 ml of the medium, and adult stem cell spheres were incubated for one week. To prevent cell loss the culture solution was partially replaced only two times per week. After 7 days, adult stem cell spheres were collected by means of 40 μm pore cell strainer. Adult stem cell spheres as collected were washed with PBS, and gently centrifuged (800 rpm/5 min) for supplementary experiments.
To identify the influence of GSK3 and PI3K signal transduction on sphere formation the inhibitory experiment was practiced. After treatment with BIO (Sigma-Aldrich) as GSK3 inhibitor at the concentration of 0 μM, 0.2 μM, or 0.5 μM, or with […] (Calbiochem, La Jolla, Calif.) as PI3K inhibitor at the concentration of 0 μM, 10 μM, 30 μM, or 50 μM the formation of adult stem cell spheres was observed. The number of adult stem cell spheres was counted after 7 days from culture.

CD49f-overexpressed MSCs = assay: Osteogenic differentiation of CD49f-overexpressed adult stem cells (Alizarin Red S, RT-PCR)
Experimental: (§4) Osteogenesis was confirmed through Alizarin Red S staining.
The monolayer-incubated cells (Comparative Example 1) and sphere-derived cells (Example 1) were incubated in DMEM containing 5% FBS, 50 μM L-ascorbate-2-phosphate, 0.1 μM dexamethasone and […] glycerolphosphate to induce differentiation into bone tissue. The cells were stained with Alizarin Red dye specific to calcium, and then the dye was extracted by treating with 100 mM cetylpyridinium chloride (Sigma-Aldrich) for one hour and used for quantitative analysis. The emission of solubilized Alizarin Red S was measured by means of spectrophotometer at 570 nm.
(§5) Subsequently, whether in differentiation of adult stem cells into osteocytes and adipocytes CD49f expression can be regulated by PI3K/AKT/GSK3 pathway was identified. CD49f-overexpressed adult stem cells were treated with LY294002 and BIO, and then incubated in osteocyte and adipocyte media, respectively, to induce differentiation into osteogenic and adipogenic lineages.

[5] = tested on: CD49f-overexpressed cells; assay: Adipogenic differentiation of CD49f-overexpressed adult stem cells (Oil Red O, RT-PCR)
Experimental: as §4
The cell culture of monolayer-incubated cells (Comparative Example 1) and sphere-derived cells (Example 1) was conducted using DMEM containing 5% FBS, 1 μM dexamethasone, 10 μM insulin, 200 μM indomethacin, and 0.5 mM isobutylmethylxanthine to induce differentiation into adipose tissue.
To determine the differentiation degree from fat accumulation present in cells, incubated cells were stained with Oil Red 0, and then Oil Red ° penetrated into cells was extracted with 100% isopropyl alcohol, and quantified with ELISA plate reader (EL800, Bio-Tek Instruments, USA) at OD 500. In addition, using RT-PCR the expression of C/EBP β, AP2, and PPARγ as adipose tissue-specific genes was examined.
as §5

With `O=C1Nc2cc(Br)ccc2/C1=C1/Nc2ccccc2/C1=N\O` [BIO] the “growth rate / cell proliferation (MTT)” value [1] was “higher”, the “number of adult stem cell spheres / sphere formation” value [2] was “increased” and the “phospho-PI3K and phospho-AKT” value (PI3K/AKT/GSK3β [3]) was “increased”. For the same molecule, the AKT phosphorylation (PI3K/AKT/GSK3β [4]) was “induced phosphorylation”, the GSK3 phosphorylation (PI3K/AKT/GSK3β [4]) was “induced phosphorylation” and the “survival potential of adult stem cells” value (adult stem cells) was “does not adversely affect”. The “number of adult stem cell spheres formed” value (adult stem cell spheres) was “significantly increased”, the “size of adult stem cell spheres” value (adult stem cell spheres) was “significantly increased” and the “propensity of adult stem cells to differentiate into osteocytes” value (CD49f-overexpressed MSCs; BIO treatment) was “increases”. For the same molecule, the “mineral accumulation (Alizarin Red S staining)” value (CD49f-overexpressed MSCs; CD49f-overexpressed MSCs, osteocyte induction) was “further increased”, the “mRNA levels of osteocyte-specific markers (BGLAP, VDR, MSX2, OSTEOCALCIN, RUNX2)” value (CD49f-overexpressed MSCs; RT-PCR, CD49f-overexpressed adult stem cells) was “further increased; also recorded: upregulated” and the “mRNA levels of adipocyte transcription factors (C/EBP β, aP2, PPARγ, LEPTIN)” value ([5]; RT-PCR) was “inhibited; also recorded: significantly reduced”. For the same molecule, the “lipid accumulation (Oil Red O staining)” value ([5]; compared to untreated control group) was “inhibited”.
